Experimental data from patent publication US20230024438A1, “INHIBITORS OF HIF-2ALPHA” (ARCUS BIOSCIENCES, INC., priority 2019, published 2023).
Like-named read-outs stand apart in the source and are kept apart here.

Key:
HIF-2α = molecular target: T1, HIF-2α (Homo sapiens, UniProt Q99814); assay: HIF-2α Luciferase Reporter Assay; format: cell-based
T1 construct: endogenous in cells; host or cells: 786-O cells (ATCC CRL-1932) stably carrying the Cignal Lenti HIF Luc Reporter
Protocol: Stable cell lines were generated by transducing 786-O cells (ATCC, CRL-1932) with Cignal Lenti HIF Luc Reporter lentivirus (CLS-007L, Qiagen) according to the manufacturer's guidelines. In brief, 0.3×10^6 786-0 cells were transduced with lentivirus at a Multiplicity of Infection (MOI) of 25 for 24 hours. After transduction, cells were replenished with fresh RPMI 1640 Medium (Cat. No. 11875085, Thermo Fisher,) supplemented with 10% FBS (Cat. No. A3160502, Gibco), 2 mM GlutaMax (Cat. No. 35050-061, Invitrogen) and 100 units of penicillin and 100 μg of streptomycin/mL (Cat. No 15070063, Thermo Fisher) for another 24 hours. Antibiotic selection was performed in cell media containing 4 μg/mL of Puromycin. After 7 days of antibiotic selection, stable pools of surviving cells were expanded and used in a luciferase reporter assay.
On day one, 20 uL of HIF-Luc-786-0 cells in OptiMem (Cat. No. 31985088, Thermo Fisher) were seeded into each well of a 384 well white opaque plate (Corning 3570) and incubated at 37° C. and 5% CO2. Twenty microliters of 2× test compounds in OptiMem were added to cells after 4 hours of incubation. Final assay conditions comprised 20,000 cells per well in 1% DMSO with test compound concentrations ranging from 50 uM to 0 uM. After 20 hours incubation at 37° C. and 5% CO2, luciferase activity was determined using ONE-Glo Luciferase Assay Reagent (E6110, Promega) following the manufacture's recommended procedure. Briefly, 40 uL of ONE-Glo luciferase reagents were added to each well and luciferase signals were measured using an Envision 2102 Multilabel Reader. Percentage maximum activity in each test well was calculated based on DMSO (maximum activity) and no cell control wells (baseline activity). The IC50 values of the test compounds were determined from compound dose response curves fitted using a standard four parameter fit equation.

[1] = molecular target: T2, Histidine tagged HIF-2α protein containing PAS-B domain (240-350) (Homo sapiens, UniProt Q99814); assay: HIF-2α Scintillation Proximity Assay (SPA); format: binding
T2 construct: Histidine tagged HIF-2α protein containing PAS-B domain (240-350) was prepared and purified in house; made in house
Protocol: Tritium labeled compound N-(3-chlorophenyl)-4-nitro-2,1,3-benzoxadiazol-5-amine was obtained from American Radiolabeled Chemicals Inc. and copper chelate PVT SPA beads were from PerkinElmer (Cat #RPNQ0095). Histidine tagged HIF-2α protein containing PAS-B domain (240-350) was prepared and purified in house.
Compounds solubilized in DMSO were dispensed into a white 384-well polystyrene non-binding flat clear bottom plate (Greiner Bio-One, Cat #781903) using an HP D300 dispenser. Ten microliters of HIS-tagged HIF-2α protein in buffer (25 mM Tris-HCl, pH 7.4, 150 mM NaCl, 0.15% BSA and 0.001% Tween 20) was added to the compound wells and allowed to incubate for 1 hour at room temperature. Ten microliters of SPA bead mix were added to the wells and incubated for an additional 45 minutes, followed by 10 ul of ^3H-tracer solution. Final assay conditions comprised 50 nM HIF-2α protein, 25 nM radiolabeled tracer and 3 ug beads per well with compounds in 2% DMSO. The plate was read using a MicroBeta Microplate Counter (PerkinElmer) for luminescence detection. The IC50 values of the test compounds were determined from compound dose response curves fitted using a standard four parameter fit equation and are reported in Table 1.

[2] = HIF-Luc-786-0 cells, 20 hours incubation, luciferase activity, read-out: HIF-2α Luciferase Assay
[3] = 50 nM HIF-2α protein, 25 nM radiolabeled tracer, read-out: HIF-2α Scintillation Proximity Assay

T2 sequence (Q99814 240-350): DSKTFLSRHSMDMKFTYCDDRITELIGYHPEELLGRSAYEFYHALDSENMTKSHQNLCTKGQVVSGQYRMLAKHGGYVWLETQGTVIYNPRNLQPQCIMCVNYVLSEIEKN
T1 sequence (Q99814 whole entry): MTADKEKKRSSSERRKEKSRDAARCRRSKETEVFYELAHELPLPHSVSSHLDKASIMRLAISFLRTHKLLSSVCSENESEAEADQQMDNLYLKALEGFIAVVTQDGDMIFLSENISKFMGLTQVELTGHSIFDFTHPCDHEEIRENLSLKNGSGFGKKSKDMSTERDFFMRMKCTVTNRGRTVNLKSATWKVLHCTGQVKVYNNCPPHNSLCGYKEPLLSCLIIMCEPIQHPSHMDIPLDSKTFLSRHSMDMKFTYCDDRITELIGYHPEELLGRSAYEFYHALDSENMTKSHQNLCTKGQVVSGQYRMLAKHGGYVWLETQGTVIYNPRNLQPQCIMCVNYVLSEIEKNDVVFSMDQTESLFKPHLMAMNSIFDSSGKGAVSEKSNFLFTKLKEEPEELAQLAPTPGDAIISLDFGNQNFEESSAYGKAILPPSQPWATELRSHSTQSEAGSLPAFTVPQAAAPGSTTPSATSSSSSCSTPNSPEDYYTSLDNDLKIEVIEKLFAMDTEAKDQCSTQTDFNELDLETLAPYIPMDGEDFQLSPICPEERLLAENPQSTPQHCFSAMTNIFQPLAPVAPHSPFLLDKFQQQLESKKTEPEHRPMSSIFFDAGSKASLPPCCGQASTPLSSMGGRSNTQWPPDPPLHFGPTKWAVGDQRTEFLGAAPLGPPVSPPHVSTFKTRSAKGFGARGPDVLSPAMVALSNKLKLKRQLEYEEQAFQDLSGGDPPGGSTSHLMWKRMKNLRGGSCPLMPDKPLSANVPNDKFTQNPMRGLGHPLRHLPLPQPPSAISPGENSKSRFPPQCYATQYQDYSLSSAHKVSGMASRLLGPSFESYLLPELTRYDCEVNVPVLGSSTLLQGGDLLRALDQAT

| SMILES | IC50 (HIF-2α; [2]) | IC50 [1, 3] | IC50 (HIF-2α) | IC50 [1] |
| --- | --- | --- | --- | --- |
| N#Cc1ccc(Oc2ccc(S(=O)(=O)C(F)(F)F)c3[nH]ncc23)cc1 [Example 19, p[7-(Trifluoromethylsulfonyl)-1H-indazol-4-yloxy]benzonitrile] | 1 to 10 µM | > 10 µM |  |  |
| O=S(=O)(c1ccc(Oc2ccc(F)cc2)c2cn[nH]c12)C(F)(F)F [Example 18, 4-(p-Fluorophenoxy)-7-(trifluoromethylsulfonyl)-1H-indazole] | 1 to 10 µM | > 10 µM |  |  |
| CS(=O)(=O)c1ccc(Oc2ccc(F)cc2F)c2cn[nH]c12 [Example 4, 4-(2,4-Difluorophenoxy)-7-methanesulfonyl-1H-indazole] | > 10 µM | > 10 µM |  |  |
| CS(=O)(=O)c1ccc(Nc2cc(F)cc(C#N)c2)c2c(F)n[nH]c12 [Example 2, 3-Fluoro-5-[(3-fluoro-7-methanesulfonyl-1H-indazol-4-yl)amino]benzonitrile] | 1 to 10 µM | > 10 µM |  |  |
| N#Cc1cc(Cl)cc(Oc2ccc(S(=O)(=O)C(F)(F)F)c3[nH]ncc23)c1 [Example 27, 3-Chloro-5-[[7-(trifluoromethylsulfonyl)-1H-indazol-4-yl]oxy]benzonitrile] | 1 to 10 µM | < 1 µM |  |  |
| N#Cc1cc(F)cc(Oc2ccc(S(=O)(=O)C(F)(F)F)c3[nH]ncc23)c1 [Example 15, 3-Fluoro-5-[(7-trifluoromethanesulfonyl-1H-indazol-4-yl)oxy]benzonitrile] |  |  | < 1 µM | < 1 µM |
| Fc1cc(F)cc(Oc2ccc(C(F)(F)F)c3[nH]ncc23)c1 [Example 26, 4-(3,5-Difluorophenoxy)-7-(trifluoromethyl)-1H-indazole] | 1 to 10 µM | 1 to 10 µM |  |  |
| CS(=O)(=O)c1ccc(Oc2cc(F)cc(Cl)c2)c2cn[nH]c12 [Example 7, 4-(3-Chloro-5-fluorophenoxy)-7-methanesulfonyl-1H-indazole] | > 10 µM | > 10 µM |  |  |
| O=S(=O)(c1ccc(Oc2ccc(Cl)cc2)c2cn[nH]c12)C(F)(F)F [Example 17, 4-(p-Chlorophenoxy)-7-(trifluoromethylsulfonyl)-1H-indazole] | 1 to 10 µM | > 10 µM |  |  |
| Cc1cc(C#N)cc(Oc2ccc(S(=O)(=O)C(F)(F)F)c3[nH]ncc23)c1 [Example 28, 3-Methyl-5-[[7-(trifluoromethylsulfonyl)-1H-indazol-4-yl]oxy]benzonitrile] | 1 to 10 µM | 1 to 10 µM |  |  |
| O=S(=O)(c1ccc(Oc2cc(F)c(F)c(F)c2)c2cn[nH]c12)C(F)(F)F [Example 30, 7-(Trifluoromethylsulfonyl)-4-(3,4,5-trifluorophenoxy)-1H-indazole] | > 10 µM | 1 to 10 µM |  |  |
| CS(=O)(=O)c1ccc(Oc2cc(F)cc(C#N)c2)c2c(Cl)n[nH]c12 [Example 8, 3-[(3-Chloro-7-methanesulfonyl-1H-indazol-4-yl)oxy]-5-fluorobenzonitrile] | 1 to 10 µM | > 10 µM |  |  |
| O=S(=O)(c1ccc(Oc2cc(F)cc(F)c2)c2cn[nH]c12)C(F)(F)F [Example 25, 4-(3,5-Difluorophenoxy)-7-trifluoromethanesulfonyl-1H-indazole] | < 1 µM | < 1 µM |  |  |
| N#Cc1ccc(Oc2ccc(S(=O)(=O)C(F)(F)F)c3[nH]ncc23)cc1F [Example 34, 2-Fluoro-4-[[7-(trifluoromethylsulfonyl)-1H-indazol-4-yl]oxy]benzonitrile] | > 10 µM | > 10 µM |  |  |
| CS(=O)(=O)c1ccc(Oc2cc(F)cc(C#N)c2)c2c(C#N)n[nH]c12 [Example 10, 4-(3-Cyano-5-fluorophenoxy)-7-methanesulfonyl-1H-indazole-3-carbonitrile] | 1 to 10 µM | > 10 µM |  |  |
| N#Cc1cc(F)cc(Oc2ccc(S(=O)(=O)C(F)F)c3[nH]ncc23)c1 [Example 12, 5-[7-(Difluoromethylsulfonyl)-1H-indazol-4-yloxy]-3-fluorobenzonitrile] | 1 to 10 µM | 1 to 10 µM |  |  |

Further lines, with some results ahead:

| IC50 (HIF-2α; [2]) | IC50 [1, 3] | SMILES | IC50 (HIF-2α) | IC50 [1] |
| --- | --- | --- | --- | --- |
| 1 to 10 µM | > 10 µM | N#Cc1cc(F)cc(Oc2ccc(S(=O)(=O)C(F)(F)F)c3[nH]nc(C#N)c23)c1 [Example 60, 4-(3-Cyano-5-fluorophenoxy)-7-trifluoromethanesulfonyl-1H-indazole-3-carbonitrile] |  |  |
| > 10 µM | > 10 µM | O=S(=O)(c1ccc(NCc2ccc(F)cc2F)c2cn[nH]c12)C(F)(F)F [Example 53, N-[(2,4-difluorophenyl)methyl]-7-(trifluoromethylsulfonyl)-1H-indazol-4-amine] |  |  |
| > 10 µM | > 10 µM | O=S(=O)(c1ccc(NCc2ccc(F)cc2Cl)c2cn[nH]c12)C(F)(F)F [Example 54, N-[(2-chloro-4-fluorophenyl)methyl]-7-(trifluoromethylsulfonyl)-1H-indazol-4-amine] |  |  |
| > 10 µM | > 10 µM | N#Cc1cc(Nc2ccc(S(=O)(=O)C(F)(F)F)c3[nH]ncc23)ccc1F [Example 48, 2-Fluoro-5-[7-(trifluoromethylsulfonyl)-1H-indazol-4-ylamino]benzonitrile] |  |  |
| 1 to 10 µM | 1 to 10 µM | N#Cc1cc(Oc2ccc(S(=O)(=O)C(F)(F)F)c3[nH]ncc23)cc(C(F)(F)F)c1 [Example 39, 3-(Trifluoromethyl)-5-[[7-(trifluoromethylsulfonyl)-1H-indazol-4-yl]oxy]benzonitrile] |  |  |
| 1 to 10 µM | < 1 µM | N#Cc1cccc(Oc2ccc(S(=O)(=O)C(F)(F)F)c3[nH]ncc23)c1 [Example 42, 3-[[7-(Trifluoromethylsulfonyl)-1H-indazol-4-yl]oxy]benzonitrile] |  |  |
| > 10 µM | 1 to 10 µM | O=S(=O)(c1ccc(Oc2cccc(Cl)c2)c2c(Cl)n[nH]c12)C(F)(F)F [Example 63, 3-Chloro-4-(m-chlorophenoxy)-7-(trifluoromethylsulfonyl)-1H-indazole] |  |  |
| > 10 µM | 1 to 10 µM | N#Cc1cc(Oc2ccc(S(=O)(=O)C(F)(F)F)c3[nH]ncc23)ccc1F [Example 36, 2-Fluoro-5-[[7-(trifluoromethylsulfonyl)-1H-indazol-4-yl]oxy]benzonitrile] |  |  |
| > 10 µM | 1 to 10 µM | N#Cc1cc(F)cc(Oc2c(F)cc(S(=O)(=O)C(F)(F)F)c3[nH]ncc23)c1 [Example 64, 3-Fluoro-5-[(5-fluoro-7-trifluoromethanesulfonyl-1H-indazol-4-yl)oxy]benzonitrile] |  |  |
| > 10 µM | < 1 µM | N#Cc1cc(F)cc(Oc2ccc(S(=O)(=O)C(F)(F)F)c3[nH]nc(Cl)c23)c1 [Example 61, 3-[(3-Chloro-7-trifluoromethanesulfonyl-1H-indazol-4-yl)oxy]-5-fluorobenzonitrile] |  |  |
| > 10 µM | 1 to 10 µM | O=S(=O)(c1ccc(NC2CC(F)(F)C2)c2cn[nH]c12)C(F)(F)F [Example 57, N-(3,3-Difluorocyclobutyl)-7-trifluoromethanesulfonyl-1H-indazol-4-amine] |  |  |
| 1 to 10 µM | > 10 µM | O=S(=O)(c1ccc(Cc2cccc(Cl)c2)c2cn[nH]c12)C(F)(F)F [Example 59, 4-[(3-Chlorophenyl)methyl]-7-trifluoromethanesulfonyl-1H-indazole] |  |  |
| 1 to 10 µM | 1 to 10 µM | O=S(=O)(c1ccc(Oc2ccc(F)c(F)c2)c2cn[nH]c12)C(F)(F)F [Example 37, 4-(3,4-Fifluorophenoxy)-7-(trifluoromethylsulfonyl)-1H-indazole] |  |  |
| 1 to 10 µM | 1 to 10 µM | N#Cc1cc(F)cc(Oc2ccc(S(=O)(=O)C(F)(F)F)c3cn[nH]c23)c1 [Example 70, 3-Fluoro-5-[4-(trifluoromethylsulfonyl)-1H-indazol-7-yloxy]benzonitrile] |  |  |
